Measured values reported in ChEMBL document CHEMBL3102833, “Design and synthesis of guanylthiourea derivatives as potential inhibitors of Plasmodium falciparum dihydrofolate reductase enzyme” (Bioorg Med Chem Lett, 2014).

Test: Inhibition of Plasmodium falciparum recombinant dihydrofolate reductase expressed in Escherichia coli BL21 (DE3)

N=C(N=C(N)N)SCc1cccc(I)c1
IC50: 0.4 µM

N=C(N)/N=C(\N)SCc1cccc(CS/C(N)=N/C(=N)N)c1
IC50: 100 µM
